Source: paper PMC8386742, “Discovery of N-aryl sulphonamide-quinazoline derivatives as anti-gastric cancer agents in vitro and in vivo via activating the Hippo signalling pathway” (Journal of Enzyme Inhibition and Medicinal Chemistry, 2021)
Read-outs that look alike come from different tables or passages of the source.

Legend:
MGC-803 cells [1] = settings: 48 h, cited from earlier work
HCT-116 cells = assay: MTT antiproliferative assay, HCT-116 cells; format: cell-based, human; settings: exposure for 48 h
Method: (§1) The in vitro antiproliferative activities of new target compounds 6a–6g, 9a–9i, 10a–10j, 11a–11j, and 14a–14d were evaluated against four human cancer cell lines (MGC-803, PC-3, HCT-116, and MCF-7) using MTT assay and 5-FU as a positive drug. The following Tables 1–[4] depicted the results of in vitro antiproliferative activity.
(§2) Cell lines used were cultured in humidified incubator in a humidified atmosphere of 5% CO2 and 95% air. The RPMI-1640 medium was supplemented with 10% foetal bovine serum, penicillin (100 U/ml) and streptomycin (0.1 mg/ml).
(§3) Cell lines were seeded into 96-well plates and incubated for 24 h. Then cells were treated with different concentrations of compounds. And after another 48 h, MTT reagent (20 μL per well) was added to each well and then incubated at 37 °C for 4 h. After the suspension was discarded, formazan was then dissolved with DMSO. Absorbencies of formazan solution were measured at 490 nm. The IC50 values of tested compounds were calculated by SPSS version 17.0.

HGC-27 cells = assay: MTT antiproliferative assay, HGC-27 gastric cancer cells; format: cell-based; settings: MTT, exposure for 48 h
Method: (§4) Furthermore, MGC-803 cells were more sensitive to the compounds than HCT-116, PC-3 cells MCF-7 cells. Moreover, we chose two other common gastric cancer cell lines (HGC-27 and SGC-7901) and another two normal cells GES-1 and HUEVC cells to examine for the inhibitory activity of compound 9i.
as §2, §3

HUEVC cells = assay: MTT antiproliferative assay, HUEVC normal cells; format: cell-based; settings: exposure for 48 h, non-cancer cell line
Method: as §4, §2, §3

PC-3 cells = assay: MTT antiproliferative assay, PC-3 cells; format: cell-based, human
Method: as §1, §2, §3

GES-1 cells = assay: MTT antiproliferative assay, GES-1 normal gastric epithelial cells; format: cell-based; settings: MTT, exposure for 48 h, non-cancer cell line
Excerpt: as §4
Since compound 9i presented high potency against cancer cells and MGC-803 cells was more sensitive to compound 9i, compound 9i, MGC-803, another two gastric cancer cells SGC-7901, HGC-27, and GES-1(normal gastric epithelial cells) were used for further detection. As shown in Figures 3(A,B), compound 9i inhibited three gastric cancer cell lines in the dose and time-dependent manners. The inhibition ratios of compound 9i against three gastric cancer cells were all above 50% after 48 h in the high dosage group. Moreover, MGC-803 and SGC-7901 cell lines were more sensitive and compound 9i inhibited over 65% cell viability with high dose treatment for 48 h.
as §2, §3

MCF-7 cells = assay: MTT antiproliferative assay, MCF-7 cells; format: cell-based, human; settings: exposure for 48 h
Method: as §1, §2, §3

SGC-7901 cells = assay: MTT antiproliferative assay, SGC-7901 gastric cancer cells; format: cell-based; settings: exposure for 48 h
Method: as §4, §2, §3

MGC-803 cells [2] = assay: MTT antiproliferative assay, MGC-803 cells; format: cell-based, human; settings: Homo sapiens, MGC-803, 48 h, exposure for 48 h
Method: as §1, §2, §3

[3] = Homo sapiens, PC-3, exposure for 48 h

| IC50 (HCT-116 cells; Homo sapiens, HCT-116, 48 h) [µM] | IC50 (PC-3 cells; [3]) [µM] | IC50 (MGC-803 cells [2]) [µM] | melting point [°C] | IC50 (MCF-7 cells; Homo sapiens, MCF7, 48 h) [µM] | SMILES | further results |
| --- | --- | --- | --- | --- | --- | --- |
| 19.8 ± 1.49 | 25.3 ± 1.78 | 18.5 ± 1.17 | 112 to 113 | 25.3 ± 1.78 | COc1cc(N(Cc2nc(C)c3ccccc3n2)C(=O)c2ccccc2)cc(OC)c1OC [Compound 11a, N-((4-Methylquinazolin-2-yl)methyl)-N-(3,4,5-trimethoxyphenyl) benzamide] |  |
| 18.9 ± 1.23 | 31.1 ± 2.04 | 14.1 ± 1.01 | 162 to 163 | 29.7 ± 1.83 | COc1cc(N(Cc2nc(C)c3ccccc3n2)C(=O)c2ccc(F)cc2)cc(OC)c1OC [Compound 11b, 4-Fluoro-N-((4-methylquinazolin-2-yl)methyl)-N-(3,4,5-trimethoxyphenyl) benzamide] |  |
| 20.4 ± 1.23 | 26.8 ± 1.32 | 13.6 ± 1.24 | 182 to 183 | 28.1 ± 1.47 | COc1cc(N(Cc2nc(C)c3ccccc3n2)C(=O)c2ccc(Br)cc2)cc(OC)c1OC [Compound 11c, 4-Bromo-N-((4-methylquinazolin-2-yl)methyl)-N-(3,4,5-trimethoxyphenyl) benzamide] |  |
| > 40 | > 40 | > 40 | 190 to 191 | > 40 | COc1cc(N(Cc2nc(C)c3ccccc3n2)C(=O)c2ccccc2Cl)cc(OC)c1OC [Compound 11d, 2-Chloro-N-((4-methylquinazolin-2-yl)methyl)-N-(3,4,5-trimethoxyphenyl) benzamide] |  |
| 28.5 ± 2.64 | > 40 | 32.8 ± 2.12 | 209 to 210 | > 40 | COc1cc(N(Cc2nc(C)c3ccccc3n2)C(=O)c2c(C)cc(C)cc2C)cc(OC)c1OC [Compound 11f, 2,4,6-Trimethyl-N-((4-methylquinazolin-2-yl)methyl)-N-(3,4,5-trimethoxyphenyl) benzamide] |  |
| > 40 | > 40 | > 40 | 117 to 118 | > 40 | COc1cc(N(Cc2nc(C)c3ccccc3n2)C(=O)c2ccc(C(C)(C)C)cc2)cc(OC)c1OC [Compound 11g, 4-(Tert-butyl)-N-((4-methylquinazolin-2-yl)methyl)-N-(3,4,5-trimethoxyphenyl) benzamide] |  |
| 20.4 ± 1.92 | > 40 | 16.8 ± 2.02 | 129 to 130 | > 40 | COc1cc(C(=O)N(Cc2nc(C)c3ccccc3n2)c2cc(OC)c(OC)c(OC)c2)cc(OC)c1OC [Compound 11i, 3,4,5-Trimethoxy-N-((4-methylquinazolin-2-yl)methyl)-N-(3,4,5-trimethoxyphenyl) benzamide] |  |
| 24.8 ± 2.13 | > 40 | 14.7 ± 1.88 | 136 to 137 | > 40 | COc1cc(N(Cc2nc(C)c3ccccc3n2)C(=O)c2cccs2)cc(OC)c1OC [Compound 11j, N-((4-methylquinazolin-2-yl)methyl)-N-(3,4,5-trimethoxyphenyl)thiophene-2-carboxamide] |  |

The next lines start with the compound.

| SMILES | IC50 (HCT-116 cells; Homo sapiens, HCT-116, 48 h) [µM] | IC50 (PC-3 cells; [3]) [µM] | IC50 (MGC-803 cells [2]) [µM] | melting point [°C] | IC50 (MCF-7 cells; Homo sapiens, MCF7, 48 h) [µM] | further results |
| --- | --- | --- | --- | --- | --- | --- |
| COc1ccc(CN(C(=O)CSc2nc3ccccc3[nH]2)c2cc(OC)c(OC)c(OC)c2)cc1 [Compound 1] |  |  |  |  |  | IC50 (MGC-803 cells [1]; previously reported compound 1 ref 31): 1.23 µM |
| COc1cc(N(Cc2nc3ccccc3[nH]2)S(=O)(=O)c2ccc(C)cc2)cc(OC)c1OC [Compound 2] |  |  |  |  |  | IC50 (MGC-803 cells [1]; previously reported compound 2 ref 32): 1.02 µM |
| O=c1[nH]cc(F)c(=O)[nH]1 [Compound 5-Fu, reference compound] |  |  |  |  |  | IC50 (HCT-116 cells): 14.4 ± 1.73 µM; IC50 (HGC-27 cells): 4.94 µM; IC50 (HUEVC cells): 18.5 µM; IC50 (PC-3 cells; exposure for 48 h): 17.1 ± 1.42 µM; IC50 (GES-1 cells): 10.2 µM; IC50 (MCF-7 cells): 12.1 ± 1.28 µM; IC50 (SGC-7901 cells): 3.88 µM |
| COc1ccc(S(=O)(=O)N(Cc2nc(C)c3ccccc3n2)c2ccccc2)cc1 [Compound 14a, 4-Methoxy-N-((4-methylquinazolin-2-yl)methyl)-N-phenylbenzene-sulphonamide] | 46.9 ± 1.84 | > 50 | 44.6 ± 1.41 | 85 to 86 | > 50 |  |
| COc1ccc(S(=O)(=O)N(Cc2nc(C)c3ccccc3n2)c2ccc(C)cc2)cc1 [Compound 14d, 4-Methoxy-N-((4-methylquinazolin-2-yl)methyl)-N-(p-tolyl)benzene-sulphonamide] | > 50 | 45.7 ± 2.88 | 42.2 ± 2.44 | 129 to 130 | > 50 |  |
